Laboratory results published in US11643421B2, “Process for the preparation of tricyclic PI3K inhibitor compounds and methods for using the same for the treatment of cancer” (priority 2015, dated 2023).
Where two headings read alike, the source gives them in different places.

Tests used:
ZAP-70 = ZAP-70 (Homo sapiens, UniProt P43403); experiment: biochemical; settings: read-out: % inhib
[1] = Hepatocyte stability, predicted hepatic clearance; assay type: in vitro ADME; settings: in vitro t1/2 method
Experimental: (§1) The hepatocyte stability of compound IIIat was evaluated across preclinical species. Certain in vivo pharmacokinetic parameters were also evaluated. […] Male Sprague-Dawley rats, female CD-1 mice, male cynomolgus monkeys and beagle dogs were dosed intravenously with 1 mg/kg of compound IIIat prepared in 60% PEG400/10% Ethanol. Compound IIIat was administered orally (PO) at the indicated dose in 0.5% methylcellulose with 0.2% Tween 80 (MCT).

[2] = Phase I dose-escalation study, maximum tolerable dose; settings: orally once daily in cycles of 28 days
Experimental: Plasma samples for pharmacokinetic (“PK”) analysis were collected on day 1 and day 8 or day 15 of cycle 1. Fluorodeoxyglucose positron emission tomography (“FDG-PET”) was performed at baseline and on-treatment.

pAKT [3] = experiment: PI3K pathway modulation in GS2 tumors, western blot; settings: 15 mg/kg PO daily 4 weeks
Experimental: Each brain was dissected to separate the tumor from the healthy tissues. […] The GS2 tumors isolated from the brains were processed and the PI3K pathway markers pAkt, pS6 and p4EBP1 were measured as described previously.

PhK_gamma2 = PhK_gamma2 (Homo sapiens, UniProt P15735); experiment: biochemical; settings: read-out: % inhib
Chain of PhK_gamma2 (P15735 whole entry): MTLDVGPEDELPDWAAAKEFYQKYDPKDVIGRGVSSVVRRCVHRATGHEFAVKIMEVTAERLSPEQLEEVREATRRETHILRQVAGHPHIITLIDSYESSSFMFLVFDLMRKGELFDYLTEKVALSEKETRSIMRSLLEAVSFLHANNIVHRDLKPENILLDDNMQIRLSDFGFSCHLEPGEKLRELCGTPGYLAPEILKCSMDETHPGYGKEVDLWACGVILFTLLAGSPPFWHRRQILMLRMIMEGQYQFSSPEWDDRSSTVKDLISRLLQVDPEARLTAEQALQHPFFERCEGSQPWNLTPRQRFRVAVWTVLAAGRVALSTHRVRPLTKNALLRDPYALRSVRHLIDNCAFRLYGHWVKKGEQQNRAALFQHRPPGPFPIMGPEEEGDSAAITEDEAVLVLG

pS6 = experiment: Modulation of pS6 in the brain of healthy mice; assay type: in vivo, Female CD-1 mice; settings: single oral dose 25 mg/kg
Experimental: (§2) Inhibition of the PI3K pathway was assessed in the brain of healthy mice through measurement of two markers, pAkt and pS6. […] Brains and plasma were collected at 1 and 6 hours post-dose, from 3 animals at each time point. […] For PD analysis, cell extraction buffer (Invitrogen, Camarillo, Calif.) containing 10 mM Tris pH 7.4, 100 mM NaCl, 1 mM EDTA, 1 mM EGTA, 1 mM NaF, 20 mM Na4P2O7, 2 mM Na3VO4, 1% Triton X-100, 10% glycerol, 0.1% SDS, and 0.5% deoxycholate was supplemented with phosphatase, protease inhibitors (Sigma, St. Louis, Mo.) and 1 mM PMSF and added to frozen brain biopsies. Brains were homogenized with a small pestle (Konte Glass Company, Vineland, N.J.), sonicated briefly on ice, and centrifuged at 20,000 g for 20 minutes at 4° C. Protein concentration was determined using BCA protein assay (Pierce, Rockford, Ill.). Proteins were separated by electrophoresis and transferred to NuPage nitrocellulose membranes (Invitrogen, Camarillo, Calif.). Licor Odyssey Infrared detection system (Licor, Lincoln, Nebr.) was used to assess and quantify protein expression. […] The differences in marker levels between the treated and control mice were evaluated using the Student's t-test (Prism 5, GraphPad).

PKC_eta = PKC_eta (Homo sapiens, UniProt P24723); experiment: biochemical; settings: read-out: % inhib
Chain of PKC_eta (P24723 whole entry): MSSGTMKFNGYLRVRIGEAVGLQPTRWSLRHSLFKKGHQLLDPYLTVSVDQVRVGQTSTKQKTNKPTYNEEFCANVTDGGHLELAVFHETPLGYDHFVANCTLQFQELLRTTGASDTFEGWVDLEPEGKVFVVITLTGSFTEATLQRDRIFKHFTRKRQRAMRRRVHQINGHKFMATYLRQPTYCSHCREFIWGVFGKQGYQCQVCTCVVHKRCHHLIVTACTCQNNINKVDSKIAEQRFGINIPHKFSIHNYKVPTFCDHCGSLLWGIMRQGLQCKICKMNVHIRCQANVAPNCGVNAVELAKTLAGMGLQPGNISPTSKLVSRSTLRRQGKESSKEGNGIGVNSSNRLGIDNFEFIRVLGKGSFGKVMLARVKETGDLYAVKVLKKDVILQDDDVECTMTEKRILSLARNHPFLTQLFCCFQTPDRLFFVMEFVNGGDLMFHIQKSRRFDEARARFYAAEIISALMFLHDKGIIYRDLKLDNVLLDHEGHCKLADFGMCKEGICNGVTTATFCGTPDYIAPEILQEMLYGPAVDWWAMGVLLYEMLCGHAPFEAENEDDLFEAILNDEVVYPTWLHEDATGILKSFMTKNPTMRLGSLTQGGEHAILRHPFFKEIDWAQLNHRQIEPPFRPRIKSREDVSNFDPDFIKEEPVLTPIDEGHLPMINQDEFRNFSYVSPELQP

MSK2 = MSK2 (Homo sapiens, UniProt O75676); experiment: biochemical; settings: read-out: % inhib
CaMKII_beta = CaMKII_beta (Homo sapiens, UniProt Q13554); experiment: biochemical; settings: read-out: % inhib
Chain of CaMKII_beta (Q13554 whole entry): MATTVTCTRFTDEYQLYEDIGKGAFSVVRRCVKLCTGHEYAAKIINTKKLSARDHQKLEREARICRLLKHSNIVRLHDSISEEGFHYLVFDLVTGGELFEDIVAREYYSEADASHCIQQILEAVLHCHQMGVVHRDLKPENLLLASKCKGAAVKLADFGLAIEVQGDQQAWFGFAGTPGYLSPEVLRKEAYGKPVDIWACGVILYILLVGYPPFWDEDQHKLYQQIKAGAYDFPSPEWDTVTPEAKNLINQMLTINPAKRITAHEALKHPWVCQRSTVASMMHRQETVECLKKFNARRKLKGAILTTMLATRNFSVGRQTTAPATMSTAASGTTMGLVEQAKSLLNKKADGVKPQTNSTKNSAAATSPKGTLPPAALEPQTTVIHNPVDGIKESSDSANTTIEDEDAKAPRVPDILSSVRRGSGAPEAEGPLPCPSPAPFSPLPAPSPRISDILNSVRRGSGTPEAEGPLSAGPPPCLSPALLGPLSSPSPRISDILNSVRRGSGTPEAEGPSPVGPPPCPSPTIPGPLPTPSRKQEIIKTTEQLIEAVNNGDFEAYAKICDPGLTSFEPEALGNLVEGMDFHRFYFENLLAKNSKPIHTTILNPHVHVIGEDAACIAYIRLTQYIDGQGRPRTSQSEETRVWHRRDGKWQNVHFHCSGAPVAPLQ

Fyn = Fyn (Homo sapiens, UniProt P06241); experiment: biochemical; settings: read-out: % inhib
Chain of Fyn (P06241 whole entry): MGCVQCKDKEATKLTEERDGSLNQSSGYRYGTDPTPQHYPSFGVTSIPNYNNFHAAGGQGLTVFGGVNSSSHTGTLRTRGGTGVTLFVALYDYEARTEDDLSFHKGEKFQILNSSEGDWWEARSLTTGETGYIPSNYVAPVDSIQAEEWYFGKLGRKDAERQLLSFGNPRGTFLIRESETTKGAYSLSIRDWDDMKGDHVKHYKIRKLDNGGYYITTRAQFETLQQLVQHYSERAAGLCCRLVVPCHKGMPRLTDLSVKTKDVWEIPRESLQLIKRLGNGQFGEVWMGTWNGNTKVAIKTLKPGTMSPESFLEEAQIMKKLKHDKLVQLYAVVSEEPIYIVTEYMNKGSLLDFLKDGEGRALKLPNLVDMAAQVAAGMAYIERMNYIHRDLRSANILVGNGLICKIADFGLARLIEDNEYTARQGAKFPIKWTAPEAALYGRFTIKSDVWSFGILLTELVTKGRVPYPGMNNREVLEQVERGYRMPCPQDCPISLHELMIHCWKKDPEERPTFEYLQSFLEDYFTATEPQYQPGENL

EphB3 = EphB3 (Homo sapiens, UniProt P54753); experiment: biochemical; settings: read-out: % inhib
PhK_gamma1 = PhK_gamma1 (Homo sapiens, UniProt Q16816); experiment: biochemical; settings: read-out: % inhib
Chain of PhK_gamma1 (Q16816 whole entry): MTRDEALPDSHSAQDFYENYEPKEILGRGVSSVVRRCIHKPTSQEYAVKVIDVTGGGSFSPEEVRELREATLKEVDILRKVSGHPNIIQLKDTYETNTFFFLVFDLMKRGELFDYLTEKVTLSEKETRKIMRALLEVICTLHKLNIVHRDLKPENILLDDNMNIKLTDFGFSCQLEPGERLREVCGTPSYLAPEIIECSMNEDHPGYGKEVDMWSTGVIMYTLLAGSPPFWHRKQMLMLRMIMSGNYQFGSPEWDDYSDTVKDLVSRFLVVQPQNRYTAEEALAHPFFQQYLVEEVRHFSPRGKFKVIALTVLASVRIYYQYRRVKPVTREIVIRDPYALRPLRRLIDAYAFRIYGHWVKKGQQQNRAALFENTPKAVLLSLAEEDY

GRK5 = GRK5 (Homo sapiens, UniProt P34947); experiment: biochemical; settings: read-out: % inhib
Chain of GRK5 (P34947 whole entry): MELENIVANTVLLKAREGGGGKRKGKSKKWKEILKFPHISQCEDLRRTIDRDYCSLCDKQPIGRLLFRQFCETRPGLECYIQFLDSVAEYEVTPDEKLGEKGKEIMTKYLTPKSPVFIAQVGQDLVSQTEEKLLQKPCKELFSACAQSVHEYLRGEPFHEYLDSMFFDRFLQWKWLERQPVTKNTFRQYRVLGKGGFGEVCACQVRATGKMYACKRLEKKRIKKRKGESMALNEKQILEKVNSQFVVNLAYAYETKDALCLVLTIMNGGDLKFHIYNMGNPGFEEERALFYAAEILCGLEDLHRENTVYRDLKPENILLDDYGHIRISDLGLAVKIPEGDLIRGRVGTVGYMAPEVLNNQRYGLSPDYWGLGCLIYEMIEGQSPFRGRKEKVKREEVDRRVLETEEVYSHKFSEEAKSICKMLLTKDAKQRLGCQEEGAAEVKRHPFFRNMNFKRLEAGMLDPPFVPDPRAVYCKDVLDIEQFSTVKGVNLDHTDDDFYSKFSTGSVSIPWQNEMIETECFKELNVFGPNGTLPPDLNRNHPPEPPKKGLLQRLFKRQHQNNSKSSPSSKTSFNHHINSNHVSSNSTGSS

[4] = Hepatocyte stability, predicted hepatic clearance; assay type: in vitro ADME, cynomolgus monkeys; settings: Cyno hepatocytes, in vitro t1/2 method
Experimental: as §1

pAKT [5] = experiment: Modulation of pAkt in the brain of healthy mice; assay type: in vivo, Female CD-1 mice; settings: single oral dose 25 mg/kg
Experimental: as §2

high-grade gliomas = experiment: Phase I study, exploratory MRI; assay type: in vivo, human; settings: 34 patients, Ktrans, cerebral blood volume, apparent diffusion coefficient
Experimental: Thirty-four patients were evaluated by exploratory magnetic resonance imaging (“MRI”). […] The Ktrans changes were within the likely noise range of the measurement (based on variability in low-exposure cohorts).

CSK = CSK (Homo sapiens, UniProt P41240); experiment: biochemical; settings: read-out: % inhib
Chain of CSK (P41240 whole entry, species assumed): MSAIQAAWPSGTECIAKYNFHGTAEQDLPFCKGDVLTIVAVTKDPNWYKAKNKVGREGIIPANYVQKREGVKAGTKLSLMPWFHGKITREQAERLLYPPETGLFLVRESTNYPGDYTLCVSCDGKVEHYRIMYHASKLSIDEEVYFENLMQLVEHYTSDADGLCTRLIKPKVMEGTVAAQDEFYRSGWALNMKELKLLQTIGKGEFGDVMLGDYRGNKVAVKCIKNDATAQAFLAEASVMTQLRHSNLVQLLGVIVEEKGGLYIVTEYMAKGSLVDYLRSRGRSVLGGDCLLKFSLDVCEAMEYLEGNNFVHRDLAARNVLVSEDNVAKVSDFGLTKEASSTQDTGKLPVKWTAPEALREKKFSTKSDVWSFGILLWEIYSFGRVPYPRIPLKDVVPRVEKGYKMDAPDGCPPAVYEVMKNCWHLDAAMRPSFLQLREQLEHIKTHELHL

[6] = Plasma protein binding by equilibrium dialysis; assay type: in vitro ADME; settings: mouse, plasma (pooled), pH 7.4, n=3, mean±standard deviation, read-out: free fraction (%) in mouse plasma
Experimental: Plasma samples were equilibrated with phosphate-buffered saline (pH 7.4) at 37° C. in 90% humidity and 5% CO2 for 4 hours. […] Incubations were performed in triplicate. Parameters are presented as mean±standard deviation.

[7] = Plasma and brain concentrations in GS2 tumor-bearing mice; assay type: in vivo; settings: mouse, 15 mg/kg PO; for concentration at 2 h: 2 h post-dose; for concentration at 8 h: 8 h post-dose
[8] = non-tumored half of the brain, read-out: Brain

Chain of ZAP-70 (P43403 whole entry, species assumed): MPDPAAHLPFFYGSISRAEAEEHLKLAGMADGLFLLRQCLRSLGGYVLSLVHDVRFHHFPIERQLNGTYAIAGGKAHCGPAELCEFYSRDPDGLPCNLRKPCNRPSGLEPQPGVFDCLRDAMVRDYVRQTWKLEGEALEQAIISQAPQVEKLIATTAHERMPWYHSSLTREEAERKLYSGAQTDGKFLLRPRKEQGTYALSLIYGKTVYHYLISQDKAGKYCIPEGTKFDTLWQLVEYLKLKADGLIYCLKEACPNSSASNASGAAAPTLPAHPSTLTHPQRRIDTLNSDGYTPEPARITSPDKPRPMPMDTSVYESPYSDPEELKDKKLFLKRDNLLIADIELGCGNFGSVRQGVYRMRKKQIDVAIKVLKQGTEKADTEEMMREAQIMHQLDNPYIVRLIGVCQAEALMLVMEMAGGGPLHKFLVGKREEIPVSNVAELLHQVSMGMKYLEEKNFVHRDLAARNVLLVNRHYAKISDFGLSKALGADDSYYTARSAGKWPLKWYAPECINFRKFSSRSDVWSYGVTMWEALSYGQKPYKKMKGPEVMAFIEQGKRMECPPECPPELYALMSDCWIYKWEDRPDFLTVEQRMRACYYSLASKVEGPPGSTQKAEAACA

CC1(C)OCCn2c1nc1c(N3CCOCC3)nc(-c3cnc(N)nc3)nc12 [GDC-0084, 5-(6,6-dimethyl-4-morpholino-8,9-dihydro-6H-[1,4]oxazino[3,4-e]purin-2-yl)pyrimidin-2-amine]
inhibition at 1 µM (ZAP-70): -0.9%
Clhep ([1]; Dog hepatocytes): 13 mL/min/kg
Clhep ([1]; Mouse hepatocytes): 30 mL/min/kg
Clhep ([1]; Rat hepatocytes): 3 mL/min/kg
MTD [2]: 45 mg
reduction of pAkt levels in GS2 tumors (pAKT [3]; 2 hours after final administration): 90%
reduction of pAkt levels in GS2 tumors (pAKT [3]; 8 hours after final administration): 70%
inhibition at 1 µM (PhK_gamma2): 0%
Suppression of pS6 in brain (pS6; 1 hour post dose): 90%
Suppression of pS6 in brain (pS6; 6 hours after dosing): greater than 70%
inhibition at 1 µM (PKC_eta): -9%
inhibition at 1 µM (MSK2): 0.6%
inhibition at 1 µM (CaMKII_beta): 0.2%
inhibition at 1 µM (Fyn): 9%
inhibition at 1 µM (EphB3): -0.1%
inhibition at 1 µM (PhK_gamma1): 2%
inhibition at 1 µM (GRK5): -10%
Clhep [4]: 26 mL/min/kg
Suppression of pAkt in brain (pAKT [5]; 1 hour post dose): 90%
Suppression of pAkt in brain (pAKT [5]; 6 hours after dosing): greater than 70%
MRI derived metrics versus drug plasma exposure (high-grade gliomas): none of the MRI derived metrics (Ktrans, Cerebral blood volume, apparent diffusion coefficient) showed any significant trend with drug plasma exposure
inhibition at 1 µM (CSK): 10%
fraction unbound at 4 h, 5 µM [6]: 0.295 ± 0.027
concentration at 2 h ([7]; plasma, read-out: Plasma): 3.64 ± 2.05 µM
concentration at 8 h ([7]; plasma, read-out: Plasma): 2.01 ± 1.19 µM
concentration at 2 h [7, 8]: 5.51 ± 1.58 µM
concentration at 8 h [7, 8]: 2.48 ± 1.25 µM
